The results in this text go back to US11124496B2, “Imidazolidine compounds” (Eli Lilly and Company, priority 2017, dated 2021).

The target of assay [1] is recombinant human ASK1 (hASK1) catalytic domain (Homo sapiens (Human), UniProt Q99683). The assay is described as follows: ASK1 enzymatic assay (ADP-Glo Kinase Assay). It is filed as biochemical. The following applies: for IC50: hASK1 0.25 nM, MKK6 300 nM, ATP 100 uM, Mean±Standard Deviation; for Efficacy (%): hASK1 enzymatic assay, standard ASK1 inhibitor = 100% inhibition, DMSO vehicle = 0%. The text has this: ASK1 Inhibitor Effect Determined by ASK1 Enzymatic Assay
Sequence of recombinant human ASK1 (hASK1) catalytic domain (Q99683 680-938): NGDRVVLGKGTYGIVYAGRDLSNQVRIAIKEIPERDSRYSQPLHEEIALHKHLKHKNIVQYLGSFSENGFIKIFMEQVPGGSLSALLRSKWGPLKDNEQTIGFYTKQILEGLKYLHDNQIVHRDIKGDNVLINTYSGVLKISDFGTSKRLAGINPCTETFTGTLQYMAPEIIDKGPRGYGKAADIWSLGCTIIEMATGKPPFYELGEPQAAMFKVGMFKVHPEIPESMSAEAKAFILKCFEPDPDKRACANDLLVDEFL
The purpose of this assay is to determine the effect of ASK1 inhibitors on the production of ADP by ASK1. The recombinant human ASK1 (hASK1) catalytic domain tagged with Glutathione S-transferase is used, and histidine-tagged full-length human MAP kinase kinase 6 (MKK6) and ATP are the substrate and cofactor, respectively.
The assay is done using an ADP-Glo™ Kinase Assay Kit (Promega, Catalog #V9102) according to the manufacturer's protocol with the following modifications. Briefly, hASK1 (0.25 nM) and MKK6 (300 nM) in a buffer (10 mM MOPS pH 7.0; 10 mM Mg-Acetate; 1 mM DTT; 0.025% NP-40; 0.05% BSA; 1.5% glycerol) are incubated with ASK1 inhibitors at varying concentrations ranging from 10.00 uM to 0.17 nM for 15 minutes, followed by incubation with ATP (100 uM) for 30 minutes at room temperature. ADP-Glo™ Reagent is added to terminate the kinase reaction and deplete the remaining ATP. The Kinase Detection Reagent is then added to convert ADP to ATP. The newly synthesized ATP is measured using a luciferase/luciferin reaction, and the luminescence determined by Envision (PerkinElmer). The luminescence intensities are analyzed by GeneData, and fit to a 4 parameter dose response-inhibitor logistics curve to determine IC50 values, using the effects of 5-(4-cyclopropyl-1H-imidazol-1-yl)-2-fluoro-4-methyl-N-{6-[4-(propan-2-yl)-4H-1,2,4-triazol-3-yl]pyridin-2-yl}benzamide as a standard and DMSO vehicle for 100% and 0% inhibition, respectively.

For the next assay, the target named is human ASK1 (Homo sapiens (Human), UniProt Q99683). The assay is described as follows: ASK1 autophosphorylation (Thr838) assay in HEK293 cells overexpressing human ASK1. It is filed as cell-based. The following applies: for IC50: H2O2-stimulated (1 mM, 10 minutes) ASK1 autophosphorylation at Thr838, HEK293 cells, Mean±Standard Deviation, read-out: HEK pASK1 IC50; for Efficacy (%): HEK pASK1 assay, standard ASK1 inhibitor = 100% inhibition, DMSO vehicle = 0%.
Sequence of human ASK1 (Q99683 whole entry): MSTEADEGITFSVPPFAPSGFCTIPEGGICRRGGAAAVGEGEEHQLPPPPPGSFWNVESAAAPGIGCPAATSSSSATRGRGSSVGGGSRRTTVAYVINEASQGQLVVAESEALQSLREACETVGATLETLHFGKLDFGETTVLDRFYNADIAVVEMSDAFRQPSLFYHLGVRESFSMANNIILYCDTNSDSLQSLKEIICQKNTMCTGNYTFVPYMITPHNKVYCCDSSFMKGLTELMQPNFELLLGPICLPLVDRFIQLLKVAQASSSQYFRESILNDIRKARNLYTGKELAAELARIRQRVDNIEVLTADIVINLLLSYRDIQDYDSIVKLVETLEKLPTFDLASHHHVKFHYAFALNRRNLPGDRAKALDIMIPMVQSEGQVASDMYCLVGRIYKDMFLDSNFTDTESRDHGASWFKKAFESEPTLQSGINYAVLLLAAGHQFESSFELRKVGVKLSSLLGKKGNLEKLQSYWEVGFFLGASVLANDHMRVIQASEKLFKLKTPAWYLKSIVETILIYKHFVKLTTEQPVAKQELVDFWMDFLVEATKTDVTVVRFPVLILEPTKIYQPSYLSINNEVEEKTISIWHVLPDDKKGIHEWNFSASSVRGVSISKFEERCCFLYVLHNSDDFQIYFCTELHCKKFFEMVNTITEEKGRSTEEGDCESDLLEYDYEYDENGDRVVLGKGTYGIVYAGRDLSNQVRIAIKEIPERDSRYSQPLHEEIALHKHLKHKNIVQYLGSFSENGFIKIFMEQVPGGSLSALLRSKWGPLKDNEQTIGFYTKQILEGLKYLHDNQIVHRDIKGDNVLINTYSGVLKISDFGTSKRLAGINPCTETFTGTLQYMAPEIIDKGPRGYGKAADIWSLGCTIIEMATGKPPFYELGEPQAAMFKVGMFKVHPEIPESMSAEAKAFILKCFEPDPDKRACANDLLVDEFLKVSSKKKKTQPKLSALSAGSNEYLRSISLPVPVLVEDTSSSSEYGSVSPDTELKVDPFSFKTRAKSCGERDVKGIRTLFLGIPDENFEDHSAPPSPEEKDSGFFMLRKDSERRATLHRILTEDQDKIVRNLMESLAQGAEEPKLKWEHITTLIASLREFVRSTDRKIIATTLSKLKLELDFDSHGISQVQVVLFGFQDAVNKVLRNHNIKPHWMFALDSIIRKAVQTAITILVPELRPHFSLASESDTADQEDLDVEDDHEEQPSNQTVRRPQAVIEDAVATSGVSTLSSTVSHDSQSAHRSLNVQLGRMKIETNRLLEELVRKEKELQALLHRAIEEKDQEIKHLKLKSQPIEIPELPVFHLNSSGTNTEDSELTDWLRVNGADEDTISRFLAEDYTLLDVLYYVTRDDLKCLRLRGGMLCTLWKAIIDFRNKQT

Structures are written as SMILES.

In general, IC50 refers to the concentration at which inhibition is half-maximal.

In the case of `CC(C)n1cnnc1-c1cccc(N2CCN(CCc3cccnc3)C2=O)n1` [Example 1, 1-[6-(4-Isopropyl-1,2,4-triazol-3-yl)-2-pyridyl]-3-[2-(3-pyridyl)ethyl]imidazolidin-2-one], in assay [1], the IC50 came to 36 ± 6.25 nM and the “Efficacy (%)” value turned out to be 100%. Also, at human ASK1, the concentration for half-maximal inhibition (IC50) worked out at 1400 nM and the “Efficacy (%)” value is on record as 80.5%.
`CC(C)n1cnnc1-c1cccc(N2CCN([C@H](C)Cn3cnc(C4CC4)c3)C2=O)n1` [Example 2, 1-[(1R)-2-(4-Cyclopropylimidazol-1-yl)-1-methyl-ethyl]-3-[6-(4-isopropyl-1,2,4-triazol-3-yl)-2-pyridyl]imidazolidin-2-one]: in assay [1], the IC50 turned out to be 14 ± 2.61 nM and the “Efficacy (%)” value was found to be 100%. Besides, at human ASK1, the IC50 came out at 886 ± 65.4 nM and the “Efficacy (%)” value is recorded as 96.0%.
As for `CC(C)n1cnnc1-c1cccc(N2CCN(CCn3cnc(C4CC4)c3)C2=O)n1` [Example 3, 1-[2-(4-Cyclopropylimidazol-1-yl)ethyl]-3-[6-(4-isopropyl-1,2,4-triazol-3-yl)-2-pyridyl]imidazolidin-2-one], the IC50 worked out at 10.8 ± 2.01 nM in assay [1] and 1130 ± 300 nM at human ASK1. Further, the results for the “Efficacy (%)” value (in assay [1]; at human ASK1) were 100% and 101%, respectively.
As for `CC(C)n1cnnc1-c1cccc(N2CCN(CCc3cnc(C4CC4)nc3)C2=O)n1` [Example 4, 1-[2-(2-Cyclopropylpyrimidin-5-yl)ethyl]-3-[6-(4-isopropyl-1,2,4-triazol-3-yl)-2-pyridyl]imidazolidin-2-one], in assay [1], the IC50 amounted to 13.7 ± 6.57 nM and the “Efficacy (%)” value is 100%. At human ASK1, the IC50 is 735 nM and the “Efficacy (%)” value is reported as 107%.
In the case of `CC(C)n1cnnc1-c1cccc(N2CCNC2=O)n1` [Example 5, 1-(6-(4-Isopropyl-4H-1,2,4-triazol-3-yl)pyridin-2-yl)imidazolidin-2-one], in assay [1], the IC50 was 64.4 ± 58.5 nM and the “Efficacy (%)” value came to 100%. On human ASK1, the IC50 stood at 3770 nM and the “Efficacy (%)” value was found to be 100%.
With `Cc1ncc(CCN2CCN(c3cccc(-c4nncn4C(C)C)n3)C2=O)cn1` [Example 6, 1-[6-(4-Isopropyl-1,2,4-triazol-3-yl)-2-pyridyl]-3-[2-(2-methylpyrimidin-5-yl)ethyl]imidazolidin-2-one], in assay [1], the IC50 stood at 88.3 ± 21.8 nM and the “Efficacy (%)” value amounted to 100%.
With `Cc1ccc(CCN2CCN(c3cccc(-c4nncn4C(C)C)n3)C2=O)cn1` [Example 7, 1-[6-(4-Isopropyl-1,2,4-triazol-3-yl)-2-pyridyl]-3-[2-(6-methyl-3-pyridyl)ethyl]imidazolidin-2-one], in assay [1], the IC50 is 16.6 ± 3.16 nM and the “Efficacy (%)” value is given as 100%. For the same compound, on human ASK1, the IC50 came out at 520 nM and the “Efficacy (%)” value was 100%.
